The source of these data is ChEMBL document CHEMBL5316350, “Novel Pyrido[2',1':2,3]imidazo[4,5-c]quinoline Derivative Selectively Poisons Leishmania donovani Bisubunit Topoisomerase 1 to Inhibit the Antimony-Resistant Leishmania Infection in Vivo” (J Med Chem, 2023).

The target of data set [1] is T1, DNA topoisomerase I (Leishmania donovani (strain BPK282A1), UniProt E9BRC0).
T1 sequence (E9BRC0 whole entry): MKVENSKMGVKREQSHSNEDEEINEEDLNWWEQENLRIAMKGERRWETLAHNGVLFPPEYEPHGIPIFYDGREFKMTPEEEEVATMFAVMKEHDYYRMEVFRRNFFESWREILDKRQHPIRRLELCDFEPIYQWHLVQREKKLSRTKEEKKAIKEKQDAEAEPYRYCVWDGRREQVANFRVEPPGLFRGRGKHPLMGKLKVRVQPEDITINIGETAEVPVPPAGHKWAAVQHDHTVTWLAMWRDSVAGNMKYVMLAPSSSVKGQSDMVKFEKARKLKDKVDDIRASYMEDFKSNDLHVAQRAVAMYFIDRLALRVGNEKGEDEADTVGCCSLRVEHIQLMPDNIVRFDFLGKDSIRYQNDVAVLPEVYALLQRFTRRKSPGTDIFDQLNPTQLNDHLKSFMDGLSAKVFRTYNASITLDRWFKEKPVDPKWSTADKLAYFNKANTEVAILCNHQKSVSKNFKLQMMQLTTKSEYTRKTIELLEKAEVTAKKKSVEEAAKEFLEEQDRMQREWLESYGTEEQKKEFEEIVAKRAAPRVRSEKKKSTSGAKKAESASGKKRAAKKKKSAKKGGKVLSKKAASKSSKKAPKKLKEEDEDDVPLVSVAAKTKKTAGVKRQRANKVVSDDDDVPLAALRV
Nature of the data set: Inhibition of Leishmania donovani Top1 assessed as relaxation of supercoiled pBluescript SK(+) DNA measured by agarose gel electrophoresis analysis.

In data set [2] the target is T1, DNA topoisomerase I. Briefly: Inhibition of recombinant Top1 in Leishmania donovani Ag83 whole cell extract assessed as relaxation of supercoiled pBluescript SK(+) DNA measured by agarose gel electrophoresis analysis.
The target of data set [3] is T2, DNA topoisomerase I (Leishmania donovani (strain BPK282A1)) (UniProt E9BRC0).
T2 sequence (whole entry): T1 sequence (E9BRC0 whole entry)
Briefly: Inhibition of Leishmania donovani topoisomerase I assessed as DNA intercalation using pBluscript (SK+) DNA as substrate at 50 to 200 uM incubated for 15 mins ethidium bromide staining based UV analysis. The note with it: dose 50-200 µM.

Data set [4] addresses T2, DNA topoisomerase I (Leishmania donovani (strain BPK282A1)). Briefly: Binding affinity to Leishmania donovani recombinant topoisomerase I assessed as stabilization of cleavage complex at 25 to 50 uM measured after 30 mins. The note with it: dose 25-50 µM.
Data set [5] has the same target. Briefly: Binding affinity to topoisomerase I in Leishmania donovani Ag83 whole cell lysate assessed as stabilization of cleavage complex at 50 to 100 uM measured after 30 mins. Type of data set: subcellular. The note with it: dose 50-100 µM.
The subject of data set [6] is Leishmania donovani. Briefly: Stabilization of Leishmania donovani promastigotes Top1-DNA complex assessed as formation of SDS-KCl precipitable complex incubated for 110 mins by anti-BrdU staining based spectrophotometric analysis. On the technique in general: Uptake of a labelled nucleoside into DNA is a usual measure of proliferation.
The test system of another data set is MCF7. Nature of the data set: Induction of cell cycle arrest in human MCF7 cells assessed as accumulation at G1 sub population measured at 5 uM upto 24 hrs by PI staining based flow cytometry. Type of data set: functional. On the technique in general: Flow cytometry measures light scatter and fluorescence of single cells or particles in a stream.
Data set [7] relates to Leishmania donovani. Briefly: Antileishmanial activity in Leishmania donovani Ag83 promastigotes assessed as Top1cc-induced DNA breakdown by measuring TUNEL positive cells by confocal microscopic analysis. Type of data set: functional, organism-based. The note with it: time 6-12 hrs, TDE = time-dependent effect.
For data set [8], the system named is Leishmania donovani. Briefly: Antileishmanial activity in Leishmania donovani Ag83 promastigotes assessed as reversible of Top1cc-induced DNA breakdown by disappearance of measuring TUNEL positive cells treated for 6 to 12 hrs followed by compound removal measured after 6 to 12 hrs by confocal microscopic analysis. Type of data set: functional, organism-based. The note with it: time 6-12 hrs.

Data set [9] deals with T2, DNA topoisomerase I (Leishmania donovani (strain BPK282A1)). Nature of the data set: Binding affinity to antimony resistant Leishmania donovani BHU575 promastigotes recombinant topoisomerase I assessed as stabilization of cleavage complex at 50 to 100 uM measured after 30 mins. The note with it: dose 50-100 µM.
Data set [10] relates to Leishmania donovani. Briefly: Antileishmanial activity against antimony resistant Leishmania donovani BHU575 promastigotes assessed as cell viability by MTT assay. Type of data set: functional, organism-based.
In data set [11] the test system is Leishmania donovani. Briefly: Antileishmanial activity against Leishmania donovani Ag83 promastigotes assessed as cell viability by MTT assay. Type of data set: functional, organism-based. Background: Tetrazolium assays rely on reduction of a dye to a coloured formazan, in cell work by metabolically active cells.
Data set [12] deals with Leishmania donovani. Briefly: Antileishmanial activity against Leishmania donovani Ag83 amastigotes infected in BALB/c mouse macrophage assessed as cell viability measured after 48 hrs infection by propidium iodide staining analysis relative to control. Type of data set: functional, organism-based. The note with it: Ag83, 48 h.
Data set [13] concerns Leishmania donovani. Briefly: Antileishmanial activity against antimony resistant Leishmania donovani BHU575 amastigotes infected in BALB/c mouse macrophage assessed as cell viability measured after 48 hrs infection by propidium iodide staining analysis relative to control. Type of data set: functional, organism-based. The note with it: BHU575, 48 h.
Data set [14] in a line: Cytotoxicity against BALB/c mouse macrophage assessed as cell viability measured after 48 hrs infection by propidium iodide staining analysis relative to control. Type of data set: toxicity, cell-based. The note with it: mouse macrophages.
Data set [15] has as its target T2, DNA topoisomerase I (Leishmania donovani (strain BPK282A1)). Nature of the data set: Binding affinity to Leishmania donovani topoisomerase I assessed as DNA intercalation by measuring dislodging of bound fluorophore at 50 uM by EtBr displacement assay.

Calls of active or inactive are those of the source. The rule behind the calls is not given here. Where only a bound is given, the exact number is not on record here.

In the case of `Brc1ccc2nc3c4ccccc4ncc3n2c1`, the IC50 at DNA topoisomerase I [1] was > 10 µM.
On the same count and under the same terms, the same measure for `c1ccc(-c2nc3ccccc3c3nc4ccccn4c23)cc1`: > 10 µM.
For `COc1ccc(-c2nc3ccccc3c3nc4ccccn4c23)cc1OC`, the figures for the IC50 at DNA topoisomerase I [1] and at DNA topoisomerase I [2] were 5.25 µM and 12 µM, respectively.
The matching figures for `Cc1cccn2c1nc1c3ccccc3nc(-c3ccccc3)c12`: 6.75 µM and 12.8 µM.
As for `O=[N+]([O-])c1ccccc1-c1nc2ccccc2c2nc3ccccn3c12`, at DNA topoisomerase I [1], the IC50 is > 10 µM.
The same measure, in the same setting: the value for `COc1ccc(-c2nc3ccccc3c3nc4cc(C)ccn4c23)cc1` was > 10 µM.
Same read-out and setting: the same measure for `O=[N+]([O-])c1cccc(-c2nc3ccccc3c3nc4ccccn4c23)c1`: > 10 µM.
For `Cc1cccn2c1nc1c3ccccc3nc(-c3ccc(Cl)cc3)c12`, the results for the IC50 on DNA topoisomerase I [1] and at DNA topoisomerase I [2] were 5.5 µM and 12.5 µM, respectively.
For `c1ccc2c(c1)ncc1c2nc2ccccn21`, the IC50 on DNA topoisomerase I [1] is > 10 µM.
The same measure, in the same setting: the value for `Clc1ccc(-c2nc3ccccc3c3nc4ccccn4c23)cc1` was 8.52 µM; that for `O=[N+]([O-])c1ccc(-c2nc3ccccc3c3nc4ccccn4c23)cc1` was > 10 µM.
With `Cc1cccn2c1nc1c3ccccc3nc(-c3cccs3)c12`, the IC50 at DNA topoisomerase I [1] stood at 7.25 µM; on DNA topoisomerase I [2], 14.9 µM.
Consider `Cc1ccc(-c2nc3ccccc3c3nc4c(C)cccn4c23)cc1`, for which the IC50 on DNA topoisomerase I [1] is 7.25 µM; at DNA topoisomerase I [2], 15.1 µM.
`Cc1cccn2c1nc1c3ccccc3nc(-c3ccccn3)c12`: the IC50 at DNA topoisomerase I [1] was > 10 µM.
Same read-out and setting: the value for `Cc1ccc(-c2nc3ccccc3c3nc4cc(C)ccn4c23)cc1` was > 10 µM.
Still for that read-out and setting: the same measure for `Cc1ccn2c(c1)nc1c3ccccc3nc(-c3ccccc3)c12`: > 10 µM; for `Clc1ccc2nc3c4ccccc4ncc3n2c1`: > 10 µM.
Consider `COc1cc([C@@H]2c3cc4c(cc3[C@@H](O[C@@H]3O[C@@H]5CO[C@@H](C)O[C@H]5[C@H](O)[C@H]3O)[C@H]3COC(=O)[C@H]23)OCO4)cc(OC)c1O`, for which, in [3], the inhibition entry is “inactive”.
With `CC[C@@]1(O)C(=O)OCc2c1cc1n(c2=O)Cc2cc3ccccc3nc2-1` [CAMPTOTHECIN], the result (in data set [4]; in [5]; in the data set with Leishmania donovani [6]; in the data set on MCF7; in data set [9]) was Active. Further, the Activity result with Leishmania donovani [7] was “Tde”. Besides, the outcome in the data set with Leishmania donovani [8] was inactive. Besides, the concentration giving a half-maximal response (EC50) worked out at 6.58 µM in the data set on Leishmania donovani [10], 3.79 µM in the data set with Leishmania donovani [11], 7.84 µM in the data set with Leishmania donovani [12] and 12.8 µM in the data set on Leishmania donovani [13]. In addition, the EC50 at 48 h in [14] came out at 18.3 µM.
For the compound `Cc1ccc2nc3c4ccccc4ncc3n2c1`, at DNA topoisomerase I [1], the IC50 is > 10 µM.
With `COc1cc(NS(C)(=O)=O)ccc1Nc1c2ccccc2nc2ccccc12`, the inhibition entry in data set [3] was “Active”. Further, the outcome in data set [15] was Active.
Regarding `Cc1ccn2c(c1)nc1c3ccccc3ncc12`, the IC50 on DNA topoisomerase I [1] was > 10 µM.
Still for that read-out and setting: the same measure for `Cc1ccc(-c2nc3ccccc3c3nc4ccccn4c23)cc1`: > 10 µM.

A word on the IC50: it is the midpoint of a concentration-inhibition curve. The term EC50 denotes the concentration giving half of the maximal effect.
